Test results reported in patent US12600740B2, “Fluorinated N-acetyl glucosamine analogs and xylose derivatives” (UTI Limited Partnership, priority 2018, dated 2026).
“Also recorded” adds a separate entry of the source.

How the values were obtained:
CD3+ T cells = assay: Annexin V/propidium iodide staining; type: cell-based; conditions: for cell death on splenocytes: propidium iodide/annexin V staining or cell cycle analysis; for necrotic, apoptotic, dead or live cells (Annexin V/PI): isolated CD3+ T cells, 25 μM and 50 μM
Excerpt: Cell-cycle flow cytometry with propidium iodide was used to corroborate the above results, and ensure the reduction in proliferation was not due to cell death. […] To further investigate whether the reduction of proliferation was due to cell death, Annexin V and propidium iodide staining were used to differentiate necrotic cells (propidium iodide+), apoptotic cells (annexin V+), dead cells (propidium iodide+ and annexin V+), and live cells (propidium iodide-annexin V−).
Cell cycle staining with propidium iodide (PI) and analysis by flow cytometry gives percentage of cells in apoptosis, G1, G2, and synthesis, and apoptosis. Following a membrane permeabilization, PI chelates to DNA and level of staining specifies the stage of the cell cycle (e.g., G2 phase will have twice the DNA and thus twice the PI signal as G1 phase, apoptotic cells contain less DNA than healthy cells and are identified by low PI staining). 1×10^6 splenocytes were used per sample, with four replicates per condition. Cells were collected into a tube with PBS and centrifuged (200 r.p.m. for 5 minutes). Pellet was resuspended in 500 μl PBS and 500 μl ice cold 100% ethanol was slowly added with gentle vortexing of sample. Cell suspension was stored at 4° C. for at least 2 hours (up to two weeks). Next, the suspension was centrifuged at 200 r.p.m. for 3 minutes, pellet was resuspended in PBS and suspension was centrifuged at 200 r.p.m for 10 minutes at 4° C. Pellet was resuspended in 350 μl of PI staining buffer (50 μg/ml propidium iodide, 0.1% TritonX100, 0.2 mg Dnase free Rnase A in PBS) and incubated for 30-45 minutes at room temperature. Suspension was transferred to a FACs tube and analyzed. Annexin V/Propidium iodide staining was detected using the Annexin V FITC apoptosis detection kit (BD Biosciences, #556547), which was performed according to manufacturer's instructions.

TNFα = TNFα ELISA of LPS-stimulated bone marrow-derived macrophages; type: cell-based, mouse; conditions: BMDMs, 50 μM, LPS 100 ng/ml, 24 hours
Description: Multiple Sclerosis: Mechanisms and Immunotherapy. Neuron 97, 742-768 (2018)]. It was tested whether the sugar analogs could affect the activity of macrophages, using bone marrow-derived macrophages (BMDMs) stimulated with lipopolysaccharide (LPS, 100 ng/ml). The sugar analogs were added at 50 μM prior to LPS, and the conditioned medium was collected after 24 hours and assayed for levels of the secreted cytokine TNFα. […] Testing Toxicity of Sugar Analogs
Femurs were carefully removed from euthanized female C57BI/6 mice, and marrow was flushed into a culture plate with cold complete bone marrow growth medium (DMEM, 10% fetal bovine serum, and the supplements 1% penicillin/streptomycin, 1% glutamine, 1% non-essential amino acids, and 10% supernatant from L929 cell-line enriched in macrophage-colony stimulating factor). Cells were spun at 1100 rpm for 10 minutes, resuspended in fresh growth medium and plated at 10×10^6 cells/ml in a 10 cm culture dish. Cells were grown in DMEM with supplements and L929 supernatant for 5 days, then half the medium was replaced with fresh growth medium. On day 7 growth medium was replaced with DMEM with 10% FBS and supplements. Cells were used on day 8, and experiments were conducted in DMEM with 1% FBS and supplements unless otherwise specified.
BMDM were plated at 25,000 cells in 96-well plates in DMEM+L929 media. After 24 hours media was changed to DMEM+1% FBS. One hour later, cells were treated with […] compounds or PBS. After 1 hour LPS (final concentration 100 ng/ml) was added. Following 24 hours, conditioned media was harvested for TNFα ELISA (Thermo Scientific), which was performed according to manufacturer's instructions.

splenocytes = assay: Splenocyte thymidine proliferation assay (anti-CD3/anti-CD28); type: cell-based, mouse; conditions: for splenocyte proliferation: 25 μM, 48 hours; for Reduce T cell proliferation: activated splenocytes, significance class
Description: It was assessed whether the glucosamine analogs have immunomodulatory properties on splenocytes isolated in culture. T cells within the splenocyte pool were polyclonally activated with anti-CD3 and anti-CD28 antibodies in the presence of compounds for 48 hours, and proliferation was determined by the uptake of tritiated thymidine and expressed as counts per minute. The relative change in proliferation of treated versus control splenocytes was taken in order to rank the compounds across multiple independent experiments (FIG. 8a).
The spleens were isolated from 8-10-week-old female C57BL/6 mice and homogenized. The cells were isolated by Ficoll gradient and spun for 30 min at 1,800 r.p.m. The cell suspension was removed and the cells were washed once with PBS. The cell pellet was subsequently re-suspended in Roswell Park Memorial Institute media containing 10% fetal bovine serum, 1% penicillin/streptomycin, 1% sodium pyruvate and 1% L-glutamine. Trypan blue exclusion was used to count live cells, and the cells were plated at 2.5×10^5 cells per well in a round-bottom 96-well plate and activated with 1,000 ng/ml plate-bound anti-CD3 and 1,000 ng/ml anti-CD28 suspended in media to preferentially activate T lymphocytes. Compounds were added at final concentrations of 25 μM. The cells were kept at 37° C. and 5% CO2 for 30 h, after which 10 μl/well (1 μCi per well) of 3H-thymidine was added for 18 h. The cells containing thymidine were harvested onto filter mats using a cell harvester and mats were allowed to dry for 24 h. The results were read by liquid scintillation counts.

| Structure (SMILES) | cell death on splenocytes (CD3+ T cells) | TNFα production by LPS-stimulated macrophages (TNFα) | necrotic, apoptotic, dead or live cells (Annexin V/PI) (CD3+ T cells) | splenocyte proliferation (splenocytes) | Reduce T cell proliferation (splenocytes) |
| --- | --- | --- | --- | --- | --- |
| CCCC(=O)OC1OC(COC(C)=O)[C@@H](F)[C@H](OC(C)=O)C1NC(C)=O (mixture of isomers) [Compound 8, 2-Acetamido-3,6-di-O-acetyl-1-O-butanoyl-2,4-dideoxy-4-fluoro-α/β-D-glucopyranose] | did not show detectable cell death |  |  |  |  |
| CC(=O)NC1C(O)OC(COC(C)=O)[C@@H](F)[C@@H]1OC(C)=O (mixture of isomers) [Compound 10] | did not show detectable cell death | enhanced TNFα levels |  |  |  |
| CC(=O)NC1C(OC(C)=O)OC(COC(C)=O)C(F)(F)[C@@H]1OC(C)=O (mixture of isomers) [Compound 16, 2-Acetamido-1,3,6-tri-O-acetyl-2,4-dideoxy-4,4-difluoro-α/β-D-xylo-hexopyranose] | did not show detectable cell death | did not alter cytokine level of activated macrophages | no evidence of causing non-specific cell apoptosis or necrosis; also recorded: did not display notable changes in their proportion of necrotic, apoptotic, dead, or live cells |  |  |
| CC(=O)N[C@H]1[C@H](OC(C)=O)O[C@H](COC(C)=O)[C@@H](OC(C)=O)[C@@H]1OC(C)=O [Compound 1, reference compound] |  |  |  | reduced splenocyte proliferation | **** (****p < 0.0001) |
| CC(=O)NC1C(OC(C)=O)OC(COC(C)=O)[C@@H](F)C1OC(C)=O (some centres unmarked) [Compound 3, reference compound] | did not show detectable cell death | did not alter cytokine level of activated macrophages | no evidence of causing non-specific cell apoptosis or necrosis; also recorded: did not display notable changes in their proportion of necrotic, apoptotic, dead, or live cells |  | **** (****p < 0.0001) |
| CCCC(=O)OC[C@H]1OC(O)[C@H](NC(C)=O)[C@@H](OC(=O)CCC)[C@@H]1F (stereo partly drawn) [Compound 12, 2-Acetamido-3,6-di-O-butanoyl-2,4-dideoxy-4-fluoro-α/β-3-D-glucopyranose] |  |  |  | reduced splenocyte proliferation | ** (**p < 0.01) |
